Laboratory results published in paper PMC7038139, “Novel Peptide CM 7 Targeted c-Met with Antitumor Activity” (Molecules, 2020).
“Also recorded” adds a separate entry of the source.

Experiments:
U87 cells = assay: Cell proliferation assay, U87 (HGF-stimulated); type: cell-based, human; details: Crizotinib 40 nM, positive control; 20 ng/mL HGF; 4 days
Protocol: (§1) Human gastric cancer cell line MKN-45 cells were from the Chinese Academy of Medical Sciences, Beijing, China. Human gastric cancer cell line MKN-28 cells, the human glioma cell line U87 cells, and MDCK cells were obtained from the American Type Culture Collection (ATCC). The MKN-45 and MKN-28 cells were grown under a humidified atmosphere of 5% CO2 at 37 °C in RPMI 1640 medium (Biological Industries, Israel), supplemented with 10% fetal bovine serum (FBS, Biological Industries, Israel), 2 mmol/L L-glutamine (Gibco, Life Technologies, Grand Island, NY, USA), 100 U/mL penicillin, and 100 μg/mL streptomycin (Invitrogen, Carlsbad, CA, USA). MDCK and U87 cells were cultured under a humidified atmosphere of 5% CO2 at 37 °C in Dulbecco’s modified Eagle’s medium (DMEM) (Gibco, Life Technologies, Grand Island, NY, USA), supplemented with 10% FBS, 2 mmol/L L-glutamine (Gibco, Life Technologies, Grand Island, NY, USA), 100 U/mL penicillin, and 100 μg/mL streptomycin (Invitrogen, Carlsbad, CA, USA).
(§2) As described in the literature, MKN-45, MKN-28, and U87 cells were seeded into 48-well culture plates (6500 cells/well) and cultured overnight. […] After 4 days, the cells were trypsinized and counted by a cell counter. […]

MKN-28 cells = assay: Cell proliferation assay, MKN-28; type: cell-based, Human; details: Crizotinib 40 nM, positive control; 4 days
Protocol: as §1, §2

MKN-45 cells = assay: Cell proliferation assay, MKN-45; type: cell-based, Human; details: Crizotinib 40 nM, positive control; 4 days
Protocol: as §1, §2

[1] = system: c-Met-positive MKN-45 cells; assay: Flow cytometry binding to c-Met-positive MKN-45 cells; design: species or system Human; details: 1 μM, 1 h, room temperature
Protocol: as §1
(§3) A flow cytometry assay was used to evaluate the conjugation and affinity of the newly designed peptides CM 7, CM 14, or FITC alone to c-Met-positive MKN-45 cells and c-Met-negative MKN-28 cells. Briefly, MKN-45 and MKN-28 cells were detached by 0.25% trypsin and the final cell concentration was adjusted to 3 × 10^6 cells/mL. […]

[2] = system: c-Met-positive MKN-45 cells; assay: Confocal microscope imaging of binding to MKN-45 cells; design: species or system Human; details: MKN-45 cells (fixed); 1 μM, 1 h, room temperature
Protocol: as §1
(§4) MKN-45 and MKN-28 cells were plated separately in a glass-bottom cell culture dish (NEST) with serum-free media overnight. The next day, cells were fixed with 4% paraformaldehyde for 20 min at room temperature. […]

[3] = system: c-Met-negative MKN-28 cells; assay: Confocal microscope imaging of binding to MKN-28 cells; design: species or system Human; details: MKN-28 cells (fixed); 1 μM, 1 h, room temperature
Protocol: as §1, §4

[4] = system: c-Met-negative MKN-28 cells; assay: Flow cytometry binding to c-Met-negative MKN-28 cells; design: species or system Human; details: 1 μM, 1 h, room temperature
Protocol: as §1, §3

Row | Compound | Inhibition of cell proliferation (U87 cells) | Inhibition of cell proliferation (MKN-28 cells) | Inhibition of cell proliferation (MKN-45 cells) | Binding by flow cytometry (in words) [1] | Binding / fluorescent signal by confocal imaging [2] | Binding / fluorescent signal by confocal imaging [3] | Binding by flow cytometry (in words) [4]
1 | C[C@@H](Oc1cc(-c2cnn(C3CCNCC3)c2)cnc1N)c1c(Cl)ccc(F)c1Cl [Crizotinib, reference compound] | significantly inhibit | significantly inhibit | significantly inhibit | – | – | – | –
2 | O=C1OC2(c3ccc(O)cc3Oc3cc(O)ccc32)c2ccc(N=C=S)cc21 [FITC, Fluorescein isothiocyanate isomer] | – | – | – | hardly combined | could not bind to MKN-45 or MKN-28 cells | could not bind to MKN-45 or MKN-28 cells; also recorded: did not show any fluorescent signals | hardly combined
